# Measured values reported in publication PMC3532212 (PLoS ONE, 2012).
# Legend:
# [1] = biological target: T1, Human S1P1 (Homo sapiens, UniProt P21453); experiment: B arrestin recruitment assay, Tango EDG1-bla U2OS cells; type: cell-based; details: 18 hours agonist incubation
# T1 construct: host or cells: U2OS (Tango EDG1-bla)
# Method: (§1) Tango™ EDG1-bla U2OS cells (Human S1P1), Tango™ EDG3-bla U2OS cells (human S1P3), Tango™ EDG6-bla U2OS cells (human S1P4) and Tango™ EDG8-bla U2OS cells (human S1P5) cell lines were cultured and assayed according to manufacturers instructions with one modification; agonists incubated on the cells for 18 hours prior to addition of the GenBlazer substrate. Final DMSO concentration in the assay is 1%.
# [2] = system: mouse and rat experimental autoimmune encephalitis, EAE; set-up: method as in PMID 23436932; details: correlated with reduced circulating lymphocytes and monocytes; cited from earlier work
# [3] = biological target: T2, human S1P3 (Homo sapiens, UniProt Q99500); experiment: B arrestin recruitment assay, Tango EDG3-bla U2OS cells; type: cell-based; details: 18 hours agonist incubation
# T2 construct: host or cells: U2OS (Tango EDG3-bla)
# Method: as §1
# [4] = biological target: T3, human S1P5 (Homo sapiens, UniProt Q9H228); experiment: B arrestin recruitment assay, Tango EDG8-bla U2OS cells; type: cell-based; details: 18 hours agonist incubation
# T3 construct: host or cells: U2OS (Tango EDG8-bla)
# Method: as §1
# [5] = system: anesthetized rats; experiment: Left ventricular contractility (LV dP/dtmax) in anesthetized rats; type: in vivo; details: anesthetized rat
# Method: The cardiovascular effects of FTY720 and BAF312 were tested in anesthetized rats (180–200 g). In brief, male Sprague Dawley rats (Charles River) were anesthetized with Inactin (110 mg/kg i.p.) and a tracheotomy performed. The femoral artery and veins were catheterized for measurement of mean arterial pressure and heart rate, collection of blood samples at 20-min intervals (0.2 mL/sample), and for compound infusion/hydration as previously described, [24]; blood samples were also withdrawn in vehicle-treated control rats. FTY720, infused as a hydrochloride salt (0.1, 0.3, 1.0 mg/kg/20-min free base equivalent solubilized in a 100% PEG-400 vehicle), or BAF312 (0.5, 1.5, 5.0 mg/kg/20-min solubilized in a 100% PEG-400 vehicle) were administered via three escalating 20-min infusions (0.011 mL/min) followed by a 1-hr post-treatment period. […] In a separate group of anesthetized rats in which left ventricular (LV) contractility was also recorded with a Millar pressure transducer introduced into the left ventricle, BAF312 was infused in the same dosing regimen as the studies described above (0.5, 1.5, 5.0 mg/kg/20-min solubilized in a 100% PEG-400 vehicle) and effects on LV dP/dtmax were recorded.
# [6] = CSF concentrations after a single oral dose of FTY720, satellite rats; type: in vivo, rat; details: FTY720 3.0 or 10 mg/kg single oral dose, 4, 8, 24, 72-hrs post-dose
# Method: Prior to longer-term hypertension studies with FTY720 an acute, single oral-dose study was performed to define the lower and upper limits of a pharmacologically-active dose with respect to acute hemodynamic effects. […] Values of both the parent and metabolite were detectable through at least 72-hrs post-dose. Tissue concentrations in the brain, skeletal muscle, and CSF were also determined in a separate group of satellite rats (please see Supplementary Figure, S2 ). Relative to the vehicle control group, FTY720 elicited dose-dependent and sustained increases in mean arterial pressure after a single oral dose, an effect that reached statistical significance in the 3 and 10 mg/kg dose groups (to 13.5±1.8 and 19.9±2.8 mmHg above baseline, respectively, based on a 24-hr mean values on day 1 vs. 3.6±1.5 mmHg in vehicle controls, Figure 4 , A). […] The acute hemodynamic effects of a single oral dose of BAF312 (0.3, 3.0, and 30 mg/kg) were also quantified.
# A blood sample or tissues were harvested from satellite rats at 4, 8, 24, and 72-hrs post-dose. […] (TIF) Click here for additional data file.
# [7] = system: rats; experiment: Urinary sodium excretion in rats; type: in vivo, rat; details: subset of telemetry rats administered FTY720; unpublished preliminary observation
# [8] = system: patients; set-up: method as in PMID 20089954; details: 1-yr trial; cited from earlier work
# [9] = system: rats; set-up: method as in PMID 12352874; details: FTY720 5 mg/kg/d; cited from earlier work
# T2 sequence (Q99500 whole entry): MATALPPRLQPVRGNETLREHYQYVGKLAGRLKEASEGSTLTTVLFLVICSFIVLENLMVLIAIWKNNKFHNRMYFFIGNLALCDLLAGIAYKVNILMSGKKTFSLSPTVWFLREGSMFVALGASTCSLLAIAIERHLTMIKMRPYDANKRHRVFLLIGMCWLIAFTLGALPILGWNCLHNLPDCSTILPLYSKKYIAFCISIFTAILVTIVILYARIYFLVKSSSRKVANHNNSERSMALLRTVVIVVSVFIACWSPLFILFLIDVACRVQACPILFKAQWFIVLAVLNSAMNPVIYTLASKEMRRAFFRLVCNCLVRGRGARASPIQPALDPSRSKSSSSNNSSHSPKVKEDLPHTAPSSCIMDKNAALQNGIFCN
# T1 sequence (P21453 whole entry): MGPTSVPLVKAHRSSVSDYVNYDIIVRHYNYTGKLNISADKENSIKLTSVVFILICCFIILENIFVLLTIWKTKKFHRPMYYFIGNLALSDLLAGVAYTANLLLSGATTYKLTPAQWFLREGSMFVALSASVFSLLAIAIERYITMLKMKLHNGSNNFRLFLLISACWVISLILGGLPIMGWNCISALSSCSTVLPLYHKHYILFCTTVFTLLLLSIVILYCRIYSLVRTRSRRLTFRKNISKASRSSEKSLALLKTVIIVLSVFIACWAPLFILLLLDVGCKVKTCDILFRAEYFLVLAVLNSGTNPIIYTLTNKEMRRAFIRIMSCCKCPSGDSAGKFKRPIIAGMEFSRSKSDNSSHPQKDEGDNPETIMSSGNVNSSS
# T3 sequence (Q9H228 whole entry): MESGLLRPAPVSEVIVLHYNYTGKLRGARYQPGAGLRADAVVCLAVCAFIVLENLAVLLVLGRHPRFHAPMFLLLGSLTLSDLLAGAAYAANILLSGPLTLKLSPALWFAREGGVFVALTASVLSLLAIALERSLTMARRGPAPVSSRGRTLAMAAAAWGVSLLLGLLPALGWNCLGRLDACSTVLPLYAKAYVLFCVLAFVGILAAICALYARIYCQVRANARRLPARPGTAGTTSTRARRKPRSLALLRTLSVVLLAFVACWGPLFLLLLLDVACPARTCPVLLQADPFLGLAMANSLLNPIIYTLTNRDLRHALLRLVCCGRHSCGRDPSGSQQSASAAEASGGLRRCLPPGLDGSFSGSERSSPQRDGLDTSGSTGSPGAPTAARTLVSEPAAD
Compound,EC50 [1],efficacious dose in EAE [2],EC50 [3],EC50 [4],"decrease in dP/dt ([5]; BAF312, 5.0 mg/kg dose group)","LV dP/dtmax, below values in vehicle control animals ([5]; BAF312, end of the 1.5 mg/kg i.v. infusion)",concentration in the CSF [6],urinary sodium excretion [7],hypertension in patients [8],24-hr sodium excretion values and fractional excretion of sodium [9]
CCc1cc(/C(C)=N/OCc2ccc(C3CCCCC3)c(C(F)(F)F)c2)ccc1CN1CC(C(=O)O)C1 [BAF312],2.5 nM,0.3 mg/kg,> 10000 nM,0.8 nM,not maintained,−5±4%,–,–,–,–
CCCCCCCCc1ccc(CC[C@](N)(CO)COP(=O)(O)O)cc1 [FTY720-P],–,–,–,–,–,–,No compound was detectable,–,–,–
CCCCCCCCc1ccc(CCC(N)(CO)CO)cc1 [FTY720],–,0.3 mg/kg,–,–,–,–,No compound was detectable,reduction in urinary sodium excretion,2–3 mmHg,elicited reductions
